Measured values taken from article PMC5908784, “Extracellular loops 2 and 3 of the calcitonin receptor selectively modify agonist binding and efficacy” (Biochemical Pharmacology, 2018).
Numbering of substitutions follows the chain as printed. Where a SMILES comes first, the peptide text is derived from it. Bridges are numbered along the chain shown (N, C = ends).

How the values were obtained:
Assay in all cases: IP1 accumulation
Format in all cases: cell-based
Details in all cases: mean ± S.E.M.; for Emax: IP1 maximal response, SEM
hCTR W361A = biological target: T1, hCTR W361A (Homo sapiens, UniProt P30988, W361A)
T1 construct: expressed in transfected cells
T1 sequence (P30988 25-474 W361A): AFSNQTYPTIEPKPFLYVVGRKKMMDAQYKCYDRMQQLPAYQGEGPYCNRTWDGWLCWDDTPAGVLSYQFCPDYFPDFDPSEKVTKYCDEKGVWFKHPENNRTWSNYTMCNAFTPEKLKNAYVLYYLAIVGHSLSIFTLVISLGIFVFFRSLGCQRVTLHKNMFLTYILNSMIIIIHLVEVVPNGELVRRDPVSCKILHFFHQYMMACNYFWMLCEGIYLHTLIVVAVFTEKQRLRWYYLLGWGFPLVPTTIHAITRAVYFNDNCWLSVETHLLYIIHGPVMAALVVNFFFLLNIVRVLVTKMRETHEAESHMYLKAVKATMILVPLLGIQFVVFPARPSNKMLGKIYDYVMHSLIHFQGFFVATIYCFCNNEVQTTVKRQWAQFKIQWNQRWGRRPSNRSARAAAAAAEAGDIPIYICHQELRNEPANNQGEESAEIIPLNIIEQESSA
Outline: (§1)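 HTRF IP-One readout of IP1 after 60 min ligand stimulation (LiCl present), cells seeded overnight. Normalized to 100 μM ATP max response. EC50/Emax via 3-parameter logistic curve fit.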

hCTR I371A = biological target: T2, hCTR I371A (Homo sapiens, UniProt P30988, I371A)
T2 construct: c-Myc (N); expressed in transfected cells
T2 sequence (P30988 25-474 I371A): T1 sequence (P30988 25-474 W361A) with A337W, I347A
Outline: as §1

hCTR V358A = biological target: T3, hCTR V358A (Homo sapiens, UniProt P30988, V358A)
T3 construct: c-Myc (N); expressed in transfected cells
T3 sequence (P30988 25-474 V358A): T1 sequence (P30988 25-474 W361A) with V334A, A337W
Outline: as §1

hCTR H296A = biological target: T4, hCTR H296A (Homo sapiens, UniProt P30988, H296A)
T4 construct: c-Myc (N); expressed in transfected cells
T4 sequence (P30988 25-474 H296A): T1 sequence (P30988 25-474 W361A) with H272A, A337W
Outline: as §1

hCTR V283A = biological target: T5, hCTR V283A (Homo sapiens, UniProt P30988, V283A)
T5 construct: expressed in transfected cells
T5 sequence (P30988 25-474 V283A): T1 sequence (P30988 25-474 W361A) with V259A, A337W
Outline: as §1

[1] = IP1, CV1-FlpIn cells, 60 min, LiCl

Question: For `CC[C@H](C)[C@H](NC(=O)[C@H](C)NC(=O)[C@@H](NC(=O)[C@H](CCC(N)=O)NC(=O)[C@@H]1CCCN1C(=O)[C@H](Cc1ccccc1)NC(=O)[C@@H](NC(=O)[C@H](Cc1c[nH]cn1)NC(=O)[C@H](Cc1ccccc1)NC(=O)[C@H](CCCCN)NC(=O)[C@H](CC(N)=O)NC(=O)[C@H](Cc1ccccc1)NC(=O)[C@H](CC(=O)O)NC(=O)[C@H](CCC(N)=O)NC(=O)[C@@H](NC(=O)[C@H](Cc1ccc(O)cc1)NC(=O)[C@@H](NC(=O)CNC(=O)[C@H](CC(C)C)NC(=O)[C@H](CCSC)NC(=O)[C@@H]1CSSC[C@H](N)C(=O)NCC(=O)N[C@@H](CC(N)=O)C(=O)N[C@@H](CC(C)C)C(=O)N[C@@H](CO)C(=O)N[C@@H]([C@@H](C)O)C(=O)N1)[C@@H](C)O)[C@@H](C)O)[C@@H](C)O)[C@@H](C)O)C(=O)NCC(=O)N[C@H](C(=O)NCC(=O)N[C@@H](C)C(=O)N1CCC[C@H]1C(N)=O)C(C)C` [hCT], which Emax (hCTR W361A) is on record?
Answer: 89 ± 9%

Question: And the Emax (hCTR I371A)?
Answer: 42 ± 3%

Question: And the Emax (hCTR V358A)?
Answer: 126 ± 9%

Question: What about the Emax (hCTR H296A) of the same compound?
Answer: 73 ± 6%

Question: And the Emax (hCTR V283A)?
Answer: 67 ± 6%

Question: `CSCC[C@H](NC(=O)CNC(=O)[C@H](CO)NC(=O)[C@H](Cc1ccccc1)NC(=O)[C@H](CCCNC(=N)N)NC(=O)[C@H](Cc1c[nH]cn1)NC(=O)[C@H](Cc1ccccc1)NC(=O)[C@H](CC(N)=O)NC(=O)[C@H](CC(N)=O)NC(=O)[C@H](CC(C)C)NC(=O)[C@H](CC(N)=O)NC(=O)[C@H](CCCNC(=N)N)NC(=O)[C@H](Cc1c[nH]c2ccccc12)NC(=O)[C@H](Cc1ccc(O)cc1)NC(=O)[C@H](C)NC(=O)[C@H](CO)NC(=O)[C@H](CC(C)C)NC(=O)[C@@H](NC(=O)[C@@H]1CSSC[C@H](N)C(=O)N[C@@H](CO)C(=O)N[C@@H](CC(N)=O)C(=O)N[C@@H](CC(C)C)C(=O)N[C@@H](CO)C(=O)N[C@@H]([C@@H](C)O)C(=O)N1)C(C)C)C(=O)NCC(=O)N[C@@H](Cc1ccccc1)C(=O)NCC(=O)N1CCC[C@H]1C(=O)N[C@@H](CCC(=O)O)C(=O)N[C@H](C(=O)N1CCC[C@H]1C(N)=O)[C@@H](C)O` [pCT] (H-CSNLSTCVLSAYWRNLNNFHRFSGMGFGPETP-NH2; disulfide 1-7) was tested. Which EC50 (hCTR W361A; [1]) did it give?
Answer: 8.32 nM

Question: And the Emax (hCTR W361A)?
Answer: 80 ± 6%

Question: What about the EC50 (hCTR I371A; [1]) of the same compound?
Answer: 4.17 nM

Question: What about the Emax (hCTR I371A) of the same compound?
Answer: 61 ± 6%

Question: And the EC50 (hCTR V358A; [1])?
Answer: 3.31 nM

Question: What about the Emax (hCTR V358A) of the same compound?
Answer: 73 ± 6%

Question: What about the EC50 (hCTR H296A; [1]) of the same compound?
Answer: 4.47 nM

Question: What about the Emax (hCTR H296A) of the same compound?
Answer: 101 ± 7%

Question: And the EC50 (hCTR V283A; [1])?
Answer: 6.17 nM

Question: And the Emax (hCTR V283A)?
Answer: 100 ± 5%

Question: Which results are given for `CC(C)C[C@H](NC(=O)[C@H](CCCCN)NC(=O)CNC(=O)[C@H](CC(C)C)NC(=O)[C@@H](NC(=O)[C@@H]1CSSC[C@H](N)C(=O)N[C@@H](CO)C(=O)N[C@@H](CC(N)=O)C(=O)N[C@@H](CC(C)C)C(=O)N[C@@H](CO)C(=O)N[C@@H]([C@@H](C)O)C(=O)N1)C(C)C)C(=O)N[C@@H](CO)C(=O)N[C@@H](CCC(N)=O)C(=O)N[C@@H](CCC(=O)O)C(=O)N[C@@H](CC(C)C)C(=O)N[C@@H](Cc1c[nH]cn1)C(=O)N[C@@H](CCCCN)C(=O)N[C@@H](CC(C)C)C(=O)N[C@@H](CCC(N)=O)C(=O)N[C@H](C(=O)N[C@@H](Cc1ccc(O)cc1)C(=O)N1CCC[C@H]1C(=O)N[C@@H](CCCNC(=N)N)C(=O)N[C@H](C(=O)N[C@@H](CC(N)=O)C(=O)N[C@H](C(=O)NCC(=O)N[C@@H](CO)C(=O)NCC(=O)N[C@H](C(=O)N1CCC[C@H]1C(N)=O)[C@@H](C)O)[C@@H](C)O)[C@@H](C)O)[C@@H](C)O` [sCT]?
Answer: Emax (hCTR W361A): 108 ± 6%; Emax (hCTR I371A): 31 ± 14%; Emax (hCTR V358A): 123 ± 6%; Emax (hCTR H296A): 101 ± 5%; Emax (hCTR V283A): 115 ± 6%
